Reference: publication PMC12655351, “Synthesis and Anticancer Activity Evaluation of New 5-((5-Nitrofuran-2-yl)allylidene)-2-thioxo-4-thiazolidinones” (Pharmaceuticals, 2025)

Assays:
SF-268 [1] = experiment: cells; conditions: Homo sapiens, SF-268, 48 h; for CC50: read-out: LC50, SF-268, 48 h
Breast cancer = experiment: cells; conditions: Homo sapiens; for GI50: read-out: MG_MID GI50; for CC50: read-out: MG_MID LC50
CCRF-CEM = experiment: cells; conditions: Homo sapiens, 48 h
SK-MEL-5 [2] = experiment: cells; conditions: Homo sapiens, SK-MEL-5, 48 h; for CC50: read-out: LC50, SK-MEL-5, 48 h
DU-145 = experiment: cells; conditions: Homo sapiens, DU-145, 48 h; for CC50: read-out: LC50, DU-145, 48 h
UACC-257 = conditions: UACC-257, 48 h
[3] = test system: panel of 60 cancer cell lines; experiment: cells; conditions: Homo sapiens, read-out: MG_MID GI50
OVCAR-5 = experiment: NCI-60 SRB screen; conditions: OVCAR-5, 48 h; for GI50: Homo sapiens
T-47D = conditions: 48 h
SK-OV-3 = experiment: cells; conditions: Homo sapiens, SK-OV-3, 48 h; for CC50: read-out: LC50, SK-OV-3, 48 h
[4] = test system: Non-small cell lung cancer; experiment: cells; conditions: Homo sapiens; for GI50: read-out: MG_MID GI50; for CC50: read-out: MG_MID LC50
NCI-H322M = experiment: NCI-60 SRB screen; conditions: 48 h; for GI50 / CC50: Homo sapiens; for CC50: read-out: LC50, NCI-H322M, 48 h
Leukemia [5] = experiment: cells; conditions: Homo sapiens; for GI50: read-out: MG_MID GI50; for CC50: read-out: MG_MID LC50
UO-31 = experiment: cells; conditions: Homo sapiens, UO-31, 48 h; for CC50: read-out: LC50, UO-31, 48 h
MDA-MB-468 = experiment: NCI-60 SRB screen; conditions: MDA-MB-468, 48 h; for GI50 / CC50: Homo sapiens; for CC50: read-out: LC50, MDA-MB-468, 48 h
KM12 = experiment: NCI-60 SRB screen; conditions: KM12, 48 h; for GI50: Homo sapiens
RXF 393 = experiment: NCI-60 SRB screen; conditions: RXF 393, 48 h; for GI50: Homo sapiens
SNB-19 = experiment: NCI-60 SRB screen; conditions: for GI50 / CC50: Homo sapiens; for GI50 / CC50 / TGI: SNB-19, 48 h; for CC50: read-out: LC50, SNB-19, 48 h
HCC-2998 = conditions: for TGI: HCC-2998, 48 h
Melanoma = Melanoma subpanel
NCI/ADR-RES = experiment: cells; conditions: Homo sapiens, 48 h; for CC50: read-out: LC50, NCI/ADR-RES, 48 h
Leukemia [6] = conditions: Leukemia subpanel
SF-268 [7] = conditions: SF-268, 48 h
SF-539 = conditions: for TGI: SF-539, 48 h
ACHN = experiment: NCI-60 SRB screen; conditions: 48 h; for GI50 / CC50: Homo sapiens; for CC50: read-out: LC50, ACHN, 48 h
OVCAR-3 = conditions: for TGI: OVCAR-3, 48 h
OVCAR-8 [8] = experiment: cells; conditions: Homo sapiens, OVCAR-8, 48 h; for CC50: read-out: LC50, OVCAR-8, 48 h
HCT-116 = conditions: HCT-116, 48 h
OVCAR-8 [9] = conditions: OVCAR-8, 48 h
SK-MEL-5 [10] = conditions: for growth GP: SK-MEL-5, 10 μM, 48 h; for TGI: SK-MEL-5, 48 h

For `CC(C)C(C(=O)O)N1C(=O)/C(=C/C=C/c2ccc([N+](=O)[O-])o2)SC1=S` (stereo not shown) [5b, 3-Methyl-2-((Z)-5-((E)-3-(5-nitrofuran-2-yl)allylidene)-4-oxo-2-thioxothiazolidin-3-yl)butanoic acid], the GI50 (SF-268 [1]) was 1.61 µM, the CC50 (SF-268 [1]) was 7.92 µM and the GI50 (Breast cancer) was 1.22 µM. It also gave a CC50 (Breast cancer) of 24.6 µM, a GI50 (CCRF-CEM) of 0.36 µM and a GI50 (SK-MEL-5 [2]) of 1.03 µM. For the same compound, the CC50 (SK-MEL-5 [2]) was 4.74 µM, the GI50 (DU-145) was 1.43 µM and the CC50 (DU-145) was 5.56 µM. It also gave a TGI (UACC-257) of 3.27 µM, a GI50 [3] of 1.4 µM and a GI50 (OVCAR-5) of 2.13 µM. For the same compound, the TGI (OVCAR-5) was 3.83 µM, the TGI (T-47D) was 3.24 µM and the GI50 (SK-OV-3) was 2.79 µM. The CC50 (SK-OV-3) was 33.9 µM, the GI50 [4] was 1.8 µM and the CC50 [4] was 20.1 µM. For the same compound, the TGI (NCI-H322M) was 3.88 µM, the GI50 (NCI-H322M) was 1.82 µM and the CC50 (NCI-H322M) was 8.29 µM. The GI50 (Leukemia [5]) was 0.84 µM, the CC50 (Leukemia [5]) was greater than 100 µM and the GI50 (UO-31) was 1.33 µM. For the same compound, the CC50 (UO-31) was 7.27 µM, the GI50 (MDA-MB-468) was 1.37 µM and the CC50 (MDA-MB-468) was 6.16 µM. For the same compound, the TGI (MDA-MB-468) was 2.90 µM, the GI50 (KM12) was 1.17 µM and the TGI (KM12) was 2.57 µM. It also gave a GI50 (RXF 393) of 1.74 µM, a TGI (RXF 393) of 3.27 µM and a GI50 (SNB-19) of 1.64 µM. The CC50 (SNB-19) was 5.53 µM, the “growth GP” value (SNB-19; SNB-19, 10 μM, 48 h) was -97.77% and the TGI (SNB-19) was 3.01 µM. The “growth GP” value (HCC-2998; HCC-2998, 10 μM, 48 h) was -95.90%, the TGI (HCC-2998) was 3.22 µM and the “MG_MID TGI” value (Melanoma) was 2.68 µM. For the same compound, the GI50 (NCI/ADR-RES) was 1.47 µM, the CC50 (NCI/ADR-RES) was 17.5 µM and the “MG_MID TGI” value (Leukemia [6]) was 3.77 µM. The TGI (SF-268 [7]) was 3.57 µM, the “growth GP” value (SF-539; SF-539, 10 μM, 48 h) was -98.47% and the TGI (SF-539) was 2.91 µM. The “growth GP” value (ACHN; 10 μM) was -99.54%, the TGI (ACHN) was 2.64 µM and the GI50 (ACHN) was 1.35 µM. The CC50 (ACHN) was 5.19 µM, the “growth GP” value (OVCAR-3; OVCAR-3, 10 μM, 48 h) was -95.93% and the TGI (OVCAR-3) was 2.77 µM. It also gave a GI50 (OVCAR-8 [8]) of 1.49 µM, a CC50 (OVCAR-8 [8]) of 25.1 µM and a TGI (HCT-116) of 1.13 µM. The TGI (OVCAR-8 [9]) was 4.78 µM, the “growth GP” value (SK-MEL-5 [10]) was -99.69% and the TGI (SK-MEL-5 [10]) was 2.21 µM.

`CCCCC(C(=O)O)N1C(=O)/C(=C/C=C/c2ccc([N+](=O)[O-])o2)SC1=S` (stereo not shown) [6b, 2-((Z)-5-((E)-3-(5-nitrofuran-2-yl)allylidene)-4-oxo-2-thioxothiazolidin-3-yl)hexanoic acid] showed a GI50 (SF-268 [1]) of 2.15 µM, a CC50 (SF-268 [1]) of 16.8 µM and a GI50 (Breast cancer) of 2.03 µM. For the same compound, the CC50 (Breast cancer) was 26.7 µM, the GI50 (CCRF-CEM) was 3.1 µM and the GI50 (SK-MEL-5 [2]) was 1.45 µM. The CC50 (SK-MEL-5 [2]) was 5.29 µM, the GI50 (DU-145) was 3.35 µM and the CC50 (DU-145) was 32.9 µM. The TGI (UACC-257) was 4.31 µM, the GI50 [3] was 2.3 µM and the GI50 (OVCAR-5) was 2.08 µM. The TGI (OVCAR-5) was 4.62 µM, the TGI (T-47D) was 4.03 µM and the GI50 (SK-OV-3) was 6.27 µM. For the same compound, the CC50 (SK-OV-3) was 46.7 µM, the GI50 [4] was 2.43 µM and the CC50 [4] was 38.7 µM. It also gave a TGI (NCI-H322M) of 15.0 µM, a GI50 (NCI-H322M) of 3.84 µM and a CC50 (NCI-H322M) of 43.9 µM. For the same compound, the GI50 (Leukemia [5]) was 2.57 µM, the CC50 (Leukemia [5]) was 98.4 µM and the GI50 (UO-31) was 1.67 µM. It also gave a CC50 (UO-31) of 6.5 µM, a GI50 (MDA-MB-468) of 1.63 µM and a CC50 (MDA-MB-468) of 6.09 µM. The TGI (MDA-MB-468) was 3.15 µM, the GI50 (KM12) was 1.63 µM and the TGI (KM12) was 3.24 µM. The GI50 (RXF 393) was 1.69 µM, the TGI (RXF 393) was 3.20 µM and the GI50 (SNB-19) was 2.1 µM. The CC50 (SNB-19) was 13.5 µM, the TGI (SNB-19) was 4.88 µM and the TGI (HCC-2998) was 3.34 µM. The “MG_MID TGI” value (Melanoma) was 3.59 µM, the GI50 (NCI/ADR-RES) was 2.24 µM and the CC50 (NCI/ADR-RES) was 29.3 µM. For the same compound, the “MG_MID TGI” value (Leukemia [6]) was 9.84 µM, the TGI (SF-268 [7]) was 5.24 µM and the TGI (SF-539) was 4.17 µM. It also gave a TGI (ACHN) of 3.48 µM, a GI50 (ACHN) of 1.88 µM and a CC50 (ACHN) of 6.47 µM. For the same compound, the TGI (OVCAR-3) was 5.33 µM, the GI50 (OVCAR-8 [8]) was 2.12 µM and the CC50 (OVCAR-8 [8]) was 13.8 µM. For the same compound, the TGI (HCT-116) was 4.05 µM, the TGI (OVCAR-8 [9]) was 4.86 µM and the “growth GP” value (SK-MEL-5 [10]) was -99.30%. For the same compound, the TGI (SK-MEL-5 [10]) was 2.77 µM.
